Experimental findings from ChEMBL document CHEMBL4304811, “Development of a Water-Soluble Indolylmaleimide Derivative IM-93 Showing Dual Inhibition of Ferroptosis and NETosis” (ACS Med Chem Lett, 2019) are described below.

Assay [1] has as its target Mitogen-activated protein kinase kinase kinase kinase 2 (Homo sapiens) (UniProt Q12851). As to the kind of experiment: Binding affinity to wild-type human partial length MAP4K2 (M1 to G318 residues) expressed in mammalian expression system assessed as residual binding level at 10 uM by Kinomescan method relative to control.
The target in assay [2] is Proto-oncogene tyrosine-protein kinase receptor Ret (Homo sapiens) (UniProt P07949). As to the kind of experiment: Binding affinity to wild-type human partial length RET (E713 to D1014 residues) expressed in bacterial expression system assessed as residual binding level at 10 uM by Kinomescan method relative to control.
Assay [3] has as its target Aurora kinase C (Homo sapiens) (UniProt Q9UQB9). As to the kind of experiment: Binding affinity to wild-type human full length AURKC (M1 to S275 residues) expressed in bacterial expression system assessed as residual binding level at 10 uM by Kinomescan method relative to control.
Assay [4] concerns the target Calcium-dependent protein kinase 1 (Plasmodium falciparum) (UniProt P62344). As to the kind of experiment: Binding affinity to wild-type Plasmodium falciparum full length CDPK1 (M1 to S524 residues) expressed in mammalian expression system assessed as residual binding level at 10 uM by Kinomescan method relative to control.
In another assay the test system is THP-1. The experiment in a line: Inhibition of Pseudomonas aeruginosa-induced pyroptosis in human THP1 cells at 10 uM preincubated for 1 hr followed by bacterial infection and measured after 2 hrs by INT dye based LDH assay. It counts as functional, cell-based.
Assay [5] has as its system Epidermal growth factor receptor (Homo sapiens), P00533 [G719S]. As to the kind of experiment: Binding affinity to human partial length EGFR G719S mutant (R669 to V1011 residues) expressed in bacterial expression system assessed as residual binding level at 10 uM by Kinomescan method relative to control.
The target in assay [6] is Mitogen-activated protein kinase kinase kinase 10 (Homo sapiens) (UniProt Q02779). The experiment in a line: Binding affinity to wild-type human partial length MLK2 (V52 to W380 residues) expressed in bacterial expression system assessed as residual binding level at 10 uM by Kinomescan method relative to control.
The target in assay [7] is Serine/threonine-protein kinase D2 (Homo sapiens) (UniProt Q9BZL6). As to the kind of experiment: Binding affinity to wild-type human partial length PRKD2 (A519 to E838 residues) expressed in bacterial expression system assessed as residual binding level at 10 uM by Kinomescan method relative to control.
Assay [8] addresses Non-receptor tyrosine-protein kinase TYK2 (Homo sapiens) (UniProt P29597). The experiment in a line: Binding affinity to wild-type human partial length TYK2 JH1 catalytic domain (V877 to C1187 residues) expressed in mammalian expression system assessed as residual binding level at 10 uM by Kinomescan method relative to control.
Assay [9] deals with Protein-tyrosine kinase 2-beta (Homo sapiens) (UniProt Q14289). The experiment in a line: Binding affinity to wild-type human full length PYK2 (M1 to E967 residues) expressed in bacterial expression system assessed as residual binding level at 10 uM by Kinomescan method relative to control.
The target of assay [10] is Serine/threonine-protein kinase PAK 5 (Homo sapiens) (UniProt Q9P286). The experiment in a line: Binding affinity to wild-type human partial length PAK7 (Y400 to H719 residues) expressed in bacterial expression system assessed as residual binding level at 10 uM by Kinomescan method relative to control.
Assay [11] addresses Proto-oncogene tyrosine-protein kinase Src (Homo sapiens) (UniProt P12931). The experiment in a line: Binding affinity to wild-type human partial length SRC (L240 to L536 residues) expressed in bacterial expression system assessed as residual binding level at 10 uM by Kinomescan method relative to control.
Assay [12] concerns the target Calcium/calmodulin-dependent protein kinase type II subunit alpha (Homo sapiens) (UniProt Q9UQM7). The experiment in a line: Binding affinity to wild-type human partial length CAMK2A (M1 to K328 residues) expressed in bacterial expression system assessed as residual binding level at 10 uM by Kinomescan method relative to control.
In assay [13] the target is Casein kinase II subunit alpha' (Homo sapiens) (UniProt P19784). The experiment in a line: Binding affinity to wild-type human full length CSNK2A2 (M1 to R350 residues) expressed in mammalian expression system assessed as residual binding level at 10 uM by Kinomescan method relative to control.
Assay [14] has as its target Tyrosine-protein kinase receptor UFO (Homo sapiens) (UniProt P30530). The experiment in a line: Binding affinity to wild-type human partial length AXL (R497 to Y821 residues) expressed in bacterial expression system assessed as residual binding level at 10 uM by Kinomescan method relative to control.
Assay [15] deals with Epidermal growth factor receptor (Homo sapiens), P00533 [T790M]. As to the kind of experiment: Binding affinity to human partial length EGFR T790M mutant (R669 to G1022 residues) expressed in mammalian expression system assessed as residual binding level at 10 uM by Kinomescan method relative to control.
Assay [16] has as its system Phosphatidylinositol 4,5-bisphosphate 3-kinase catalytic subunit alpha isoform (Homo sapiens), P42336 [H1047Y]. As to the kind of experiment: Binding affinity to human partial length PIK3CA H1047Y mutant (R108 to N1068 residues) expressed in mammalian expression system assessed as residual binding level at 10 uM by Kinomescan method relative to control.
The target in assay [17] is Receptor-interacting serine/threonine-protein kinase 4 (Homo sapiens) (UniProt P57078). The experiment in a line: Binding affinity to wild-type human partial length RIPK4 (M1 to V303 residues) expressed in mammalian expression system assessed as residual binding level at 10 uM by Kinomescan method relative to control.
In assay [18] the target is Casein kinase II subunit alpha (Homo sapiens) (UniProt P68400). The experiment in a line: Binding affinity to wild-type human full length CSNK2A1 (M1 to Q391 residues) expressed in mammalian expression system assessed as residual binding level at 10 uM by Kinomescan method relative to control.
In assay [19] the target is SRSF protein kinase 2 (Homo sapiens) (UniProt P78362). The experiment in a line: Binding affinity to wild-type human full length SRPK2 (M1 to S686 residues) expressed in bacterial expression system assessed as residual binding level at 10 uM by Kinomescan method relative to control.
Assay [20] addresses Protein-arginine deiminase type-4 (Homo sapiens) (UniProt Q9UM07). The experiment in a line: Inhibition of recombinant human PAD4 at 200 uM using N-alpha-benzoyl-L-arginine ethyl ester as substrate by fluorescence based analysis.
Assay [21] concerns the target Macrophage colony-stimulating factor 1 receptor (Homo sapiens) (UniProt P07333). The experiment in a line: Binding affinity to wild-type human partial length CSF1R (I564 to S939 residues) expressed in bacterial expression system assessed as residual binding level at 10 uM by Kinomescan method relative to control.
In assay [22] the target is Activin receptor type-1-like (Homo sapiens) (UniProt P37023). As to the kind of experiment: Binding affinity to wild-type human ACVRL1 (L164 to Q503 residues) expressed in bacterial expression system assessed as residual binding level at 10 uM by Kinomescan method relative to control.
For assay [23], the system named is Tyrosine-protein kinase ABL1 (Homo sapiens), P00519 [H396P]. The experiment in a line: Binding affinity to human phosphorylated ABL1 H396P mutant (S229 to K512 residues) expressed in mammalian expression system assessed as residual binding level at 10 uM by Kinomescan method relative to control.

The source made the active and inactive calls. The calls are words filed in the database; no cut-off is given here.

As to `CC(C)N1C(=O)C(NCCCN(C)C)=C(c2cn(C)c3ccccc23)C1=O.Cl`, the Activity in [1] was 85%; in assay [2] it was 98%; in assay [3], 92%; in [4] it was 81%; in assay [5], 100%; in [6], 83%. The Activity in [7] is 93%; in assay [8] it was 82%; in assay [9], 100%; in assay [10], 100%; in assay [11] it was 93%; in assay [12] it was 100%. Besides, the Activity in assay [13] amounted to 78%; in assay [14], 99%; in assay [15], 91%; in assay [16] it was 94%; in [17], 100%; in assay [18], 98%. In addition, the Activity in [19] turned out to be 100%; in assay [21] it was 97%; in assay [22] it was 100%; in [23], 93%. For the same molecule, the inhibition result (with THP-1; in assay [20]) was “inactive” throughout.
